According to publication PMC5281058 (Journal of the American Chemical Society, 2015):
Like-named read-outs stand apart in the source and are kept apart here.

Legend:
[1] = molecular target: T1, adenosine deaminase (ADA) (Homo sapiens, UniProt P00813); format: biochemical; conditions: for reaction half-life t1/2 of deamination by ADA: calculated assuming a pseudo-first order reaction, real-time absorption; for deamination rate by ADA (in words): real-time continuous measurements, compared with A to I
T1 sequence (P00813 1-363): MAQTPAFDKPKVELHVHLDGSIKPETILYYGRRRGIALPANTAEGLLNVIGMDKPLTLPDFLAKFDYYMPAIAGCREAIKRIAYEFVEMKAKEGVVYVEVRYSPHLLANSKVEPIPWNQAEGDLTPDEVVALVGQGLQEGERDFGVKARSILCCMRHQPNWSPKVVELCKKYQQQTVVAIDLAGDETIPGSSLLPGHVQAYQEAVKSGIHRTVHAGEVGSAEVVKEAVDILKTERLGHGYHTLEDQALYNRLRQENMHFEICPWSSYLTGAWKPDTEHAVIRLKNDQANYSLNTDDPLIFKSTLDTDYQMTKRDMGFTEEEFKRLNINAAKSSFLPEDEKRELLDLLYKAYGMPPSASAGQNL

[2] = molecular target: T1, adenosine deaminase (ADA); conditions: conversion of ^thA to ^thI; ref 4b; cited from earlier work
[3] = cited from earlier work

SMILES: Nc1ncnc2c([C@@H]3O[C@H](CO)[C@@H](O)[C@H]3O)scc12 [^thA]
- reaction half-life t1/2 of deamination by ADA [1]: 818 s
- deamination rate by ADA (in words) [1]: sluggish
- enzymatic conversion by ADA, times slower compared to adenosine [2]: approximately 20 times

SMILES: Nc1ncnc2c([C@@H]3O[C@H](CO)[C@@H](O)[C@H]3O)snc12 [^tzA]
- reaction half-life t1/2 of deamination by ADA [1]: 39 s
- deamination rate by ADA (in words) [1]: at the same rate as it deaminates A to I

SMILES: Nc1ncnc2c1ncn2[C@@H]1O[C@H](CO)[C@@H](O)[C@H]1O [adenosine]
- half-life ([1]; adenosine deaminase (ADA) enzyme): 57 s
- pKa (N1) ([3]; reported values for adenosine): 3.6– 4.2

SMILES: Nc1nc2c(ncn2[C@@H]2O[C@H](CO)[C@@H](O)[C@H]2O)c(=O)[nH]1 [guanosine]
- pKa (N7) ([3]; reported values for guanosine, first value): 3.2–3.3
- pKa (N1) ([3]; reported values for guanosine, second value): 9.2–9.6

SMILES: O=c1ccn([C@@H]2O[C@H](CO)[C@@H](O)[C@H]2O)c(=O)[nH]1 [uridine]
- pKa (N3 deprotonation) ([3]; values reported for N3 deprotonation in uridine): 9.20–9.25
